This is an account of results in paper PMC10905627 (Oncogene, 2018).

What is called Vss is the apparent volume that relates the amount in the body to the concentration in plasma or blood. A word on the half-life: it is the time in which the quantity being followed falls by half.

Read-outs that look alike come from different tables or passages of the source. Peptide text beside a SMILES is read from it. * marks the point of attachment. Cbz = O=C(OCc1ccccc1)*; CH2F = FC*

One series relates to H1299 lung cancer cells. As to the kind of experiment: Cell viability. It counts as cell-based, human. The following applies: for effect on JL5-induced cell death: H1299, pretreated 1 h, then JL5 3 days.
The target in a further series is ALK6/BMPR1B (Homo sapiens, UniProt O00238). The conditions noted are these: read-out: IC50 ALK6/BMPR1B; previously reported; cited from earlier work.
Chain of ALK6/BMPR1B (O00238 14-502): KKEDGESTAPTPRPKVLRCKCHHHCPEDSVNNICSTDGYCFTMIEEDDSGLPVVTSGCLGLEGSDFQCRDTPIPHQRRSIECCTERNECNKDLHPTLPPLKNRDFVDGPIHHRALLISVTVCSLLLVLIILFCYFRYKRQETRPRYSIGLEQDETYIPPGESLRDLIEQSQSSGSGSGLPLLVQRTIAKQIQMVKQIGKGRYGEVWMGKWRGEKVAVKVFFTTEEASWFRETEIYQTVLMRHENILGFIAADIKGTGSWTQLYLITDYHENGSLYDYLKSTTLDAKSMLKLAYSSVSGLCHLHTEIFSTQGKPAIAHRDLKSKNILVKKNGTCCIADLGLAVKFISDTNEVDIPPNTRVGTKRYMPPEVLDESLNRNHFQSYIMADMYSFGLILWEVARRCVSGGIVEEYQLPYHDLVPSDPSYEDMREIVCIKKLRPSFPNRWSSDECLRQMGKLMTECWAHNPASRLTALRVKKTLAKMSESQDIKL
Series [1] concerns Id1, TAK1, XIAP in H1299 tumors. The conditions noted are these: similar doses; cited from earlier work.
A further series addresses T1, ALK2/ACVR1 (Homo sapiens, UniProt Q04771).
T1 sequence (Q04771 21-509): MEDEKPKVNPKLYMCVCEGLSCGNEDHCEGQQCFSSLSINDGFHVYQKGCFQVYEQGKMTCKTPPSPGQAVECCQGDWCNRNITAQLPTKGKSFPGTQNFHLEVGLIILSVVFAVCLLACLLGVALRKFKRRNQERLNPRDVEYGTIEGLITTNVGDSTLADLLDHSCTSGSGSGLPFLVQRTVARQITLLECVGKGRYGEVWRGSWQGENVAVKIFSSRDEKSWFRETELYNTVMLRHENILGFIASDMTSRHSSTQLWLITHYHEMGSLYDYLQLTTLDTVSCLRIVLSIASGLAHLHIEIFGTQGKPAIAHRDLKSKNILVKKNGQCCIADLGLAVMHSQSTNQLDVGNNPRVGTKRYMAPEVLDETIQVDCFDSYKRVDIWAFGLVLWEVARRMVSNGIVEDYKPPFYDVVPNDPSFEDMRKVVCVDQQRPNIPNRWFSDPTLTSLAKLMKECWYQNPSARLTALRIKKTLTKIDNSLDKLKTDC
The following applies: read-out: IC50 ALK2/ACVR1; previously reported; cited from earlier work.

Another series addresses ALK3/BMPR1A (Homo sapiens, UniProt P36894). The following applies: read-out: IC50 ALK3/BMPR1A; previously reported; cited from earlier work.
The nature of series [2]: Metabolic stability in mouse liver microsomes. It counts as in vitro ADME. Background: Liver microsomes are vesicles of endoplasmic reticulum, rich in cytochrome P450 enzymes.
For a further series, the target named is T2, BMPR2 (Homo sapiens, UniProt Q13873).
T2 sequence (Q13873 27-1038): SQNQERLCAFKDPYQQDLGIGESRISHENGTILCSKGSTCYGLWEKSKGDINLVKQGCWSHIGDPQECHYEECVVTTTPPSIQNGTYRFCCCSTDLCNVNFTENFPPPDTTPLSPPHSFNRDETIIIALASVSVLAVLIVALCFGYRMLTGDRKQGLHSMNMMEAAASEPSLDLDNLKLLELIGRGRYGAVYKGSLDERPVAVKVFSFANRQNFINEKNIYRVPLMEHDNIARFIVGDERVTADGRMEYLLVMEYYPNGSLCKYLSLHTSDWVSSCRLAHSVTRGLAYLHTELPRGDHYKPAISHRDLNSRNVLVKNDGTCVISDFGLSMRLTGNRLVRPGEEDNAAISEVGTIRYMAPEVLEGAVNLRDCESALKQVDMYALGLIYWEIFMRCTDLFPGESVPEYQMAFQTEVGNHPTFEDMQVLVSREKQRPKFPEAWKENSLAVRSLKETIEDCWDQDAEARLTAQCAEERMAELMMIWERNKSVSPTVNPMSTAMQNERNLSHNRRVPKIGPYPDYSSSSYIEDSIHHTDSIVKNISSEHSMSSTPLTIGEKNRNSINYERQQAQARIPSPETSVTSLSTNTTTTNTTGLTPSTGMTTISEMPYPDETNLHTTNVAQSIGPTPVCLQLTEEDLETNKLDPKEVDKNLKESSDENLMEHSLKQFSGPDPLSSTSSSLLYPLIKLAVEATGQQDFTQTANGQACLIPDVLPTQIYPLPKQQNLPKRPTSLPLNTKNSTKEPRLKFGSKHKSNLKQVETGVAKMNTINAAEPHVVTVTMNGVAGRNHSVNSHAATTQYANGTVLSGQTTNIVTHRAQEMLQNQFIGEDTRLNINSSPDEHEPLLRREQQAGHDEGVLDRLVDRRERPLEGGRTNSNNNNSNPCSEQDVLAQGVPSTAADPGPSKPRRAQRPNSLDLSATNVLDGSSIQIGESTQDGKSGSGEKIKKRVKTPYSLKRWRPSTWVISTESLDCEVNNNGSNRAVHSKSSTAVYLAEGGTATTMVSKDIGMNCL
The conditions noted are these: read-out: IC50 BMPR2; previously reported; cited from earlier work.

Series [3] can be described thus: LCMS of stored solid sample. It counts as physicochemical. The following applies: stored as a solid in a desiccator for 4 months.
For series [4] the following is noted: cited from earlier work.

Chain of ALK3/BMPR1A (P36894 24-532): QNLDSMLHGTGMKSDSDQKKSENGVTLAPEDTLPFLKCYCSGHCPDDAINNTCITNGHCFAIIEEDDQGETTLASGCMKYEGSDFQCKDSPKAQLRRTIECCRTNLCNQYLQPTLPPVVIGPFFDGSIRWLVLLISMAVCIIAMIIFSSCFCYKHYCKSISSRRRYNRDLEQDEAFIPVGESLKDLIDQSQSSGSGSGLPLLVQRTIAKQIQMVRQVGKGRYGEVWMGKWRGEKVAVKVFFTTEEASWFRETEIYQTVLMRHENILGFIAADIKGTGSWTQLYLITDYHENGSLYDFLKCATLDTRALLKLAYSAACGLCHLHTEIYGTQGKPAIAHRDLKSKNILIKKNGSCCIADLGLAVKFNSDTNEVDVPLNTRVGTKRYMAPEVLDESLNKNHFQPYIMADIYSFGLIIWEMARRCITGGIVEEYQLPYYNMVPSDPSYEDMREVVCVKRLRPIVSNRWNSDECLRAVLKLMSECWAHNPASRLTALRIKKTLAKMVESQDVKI

As for `COC(=O)C[C@H](NC(=O)[C@H](C)NC(=O)[C@@H](NC(=O)OCc1ccccc1)C(C)C)C(=O)CF` [Z-VAD-FMK] (Cbz-Val-Ala-Asp(OMe)-CH2F), the “effect on JL5-induced cell death” value with H1299 lung cancer cells is listed as “partially inhibited”.
With `CN1C(=O)C(Cc2c[nH]c3ccccc23)NC1=S` (stereo not shown) [necrostatin-1], the “effect on JL5-induced cell death” value in the series with H1299 lung cancer cells is listed as “had no effect”.
As for `c1ccc2c(-c3cnn4cc(-c5ccc(OCCN6CCOCC6)cc5)cnc34)ccnc2c1` [DMH2], the IC50 at ALK6/BMPR1B was 43 nM. Besides, the “downregulation of Id1, pTAK1, XIAP in tumor xenografts” value in series [1] is given as “did not downregulate Id1, pTAK1, or XIAP”. Also, the IC50 on ALK2/ACVR1 was 23 nM. For the same molecule, the IC50 on ALK3/BMPR1A was 92 nM. This molecule registered a ClearanceINT in series [2] of 250 mL/min/kg. For the same molecule, the IC50 on BMPR2 was 7950 nM. The “cell death, JL5 compared with DMH2” value in the series on H1299 lung cancer cells (H1299, 2.5 μM, 3 days) is recorded as “same amount of cell death”. Besides, the “chemical stability on storage (LCMS)” value in series [3] was “revealed a phenolic byproduct due to morpholine side-chain hydrolysis”. For the same molecule, in [4] (i.v.), the AUCinf was 487 ng·h/mL, the AUClast was 485 ng·h/mL, the CL is 68 mL/min/kg and the T1/2 was 57 min. Besides, the Vss in [4] (i.v.) was 0.95 L/kg. In [4] (p.o.), the AUCinf was 729 ng·h/mL, the AUClast was 707 ng·h/mL and the C0/Cmax is 684 ng/mL. In [4] (stated in discussion), the half-life was 60 min.
